Measurements: the NIST ThermoML archive (doi:10.1021/acs.jced.9b00414)
± gives the expanded uncertainty stated by the source.

Details: Liquid, Ebulliometric method (Recirculating still)

Structure (SMILES): Cc1ccccc1C [1,2-dimethylbenzene]
- vapor or sublimation pressure (417.43 K): 101.3 ± 1.2 kPa

Structure (SMILES): CCCCOC(=O)CCC [butyl butanoate]
- vapor or sublimation pressure (438.28 K): 101.3 ± 1.2 kPa

Structure (SMILES): O=C1CCCCC1 [cyclohexanone]
- vapor or sublimation pressure (428.57 K): 101.3 ± 1.2 kPa

Structure (SMILES): COC(=O)OC [dimethyl carbonate]
- vapor or sublimation pressure (363.36 K): 101.3 ± 1.2 kPa

Structure (SMILES): CCO [ethanol]
- vapor or sublimation pressure (351.45 K): 101.3 ± 1.2 kPa
